Patent publication US5637583A, “Aminocyclohexylesters and uses thereof” (University of British Columbia, priority 1994, dated 1997)
Where a name gives a salt, the structure may show the parent alone. Read-outs that look alike come from different tables or passages of the source.

Tests used:
[1] = test system: conscious rats subject to coronary artery occlusion; test: Antiarrhythmic efficacy: incidence of cardiac arrhythmias in conscious rats subject to coronary artery occlusion; type: in vivo, rat; settings: score 0-9 per Table 2, 30 min after occlusion
Method: Antiarrhythmic efficacy was assessed by investigating the effect of a compound on the incidence of cardiac arrhythmias in conscious rats subject to coronary artery occlusion. Rats weighing 200-300 gms were subjected to preparative surgery and assigned to groups in a random block design. In each case, the animal was anesthetized with halothane during surgical preparation. The left femoral artery was cannulated for measurement of mean arterial blood pressure and withdrawal of blood samples. The left femoral vein was also cannulated for injection of drugs. The thoracic cavity was opened and a polyethylene occluder loosely placed around the left anterior descending coronary artery. The thoracic cavity was then closed. ECG was recorded by insertion of electrodes placed along the anatomical axis of the heart. All cannulae and electrode leads were exteriorized in the mid scapular region. In random and double-blind manner, about 0.5 to 2 hours post-surgery, an infusion of vehicle, or the compound to be tested was given. After 15 minutes infusion, the occluder was pulled so as to produce coronary artery occlusion. ECG, arrhythmias, blood pressure, heart rate and mortality were monitored for 30 minutes after occlusion. Arrhythmias were recorded as ventricular tachycardia (VT) and ventricular fibrillation (VF) and scored according to Curtis, M. J. and Walker, M. J. A., Cardiovasc.
VPB=ventricular premature beats
VT=ventricular tachycardia
VF=ventricular fibrillation
Occlusion is associated with increases in R-wave height and "S-T" segment elevation; and an occluded zone (measured after death by cardiogreen dye perfusion) in the range of 25%-50% of total left-ventricular weight.

cardiac sodium channel [2] = target: T1, cardiac sodium channel (Rattus norvegicus, UniProt P15389); test: ECG parameters in anesthetized rats (RSh, PR, QRS; cardiac sodium channel blockade); type: in vivo; settings: i.v. bolus; for ED25 PR (dose required to produce a 25% increase): P-R interval; for ED25 QRS (dose required to produce a 25% increase): QRS interval
T1 sequence (P15389 whole entry): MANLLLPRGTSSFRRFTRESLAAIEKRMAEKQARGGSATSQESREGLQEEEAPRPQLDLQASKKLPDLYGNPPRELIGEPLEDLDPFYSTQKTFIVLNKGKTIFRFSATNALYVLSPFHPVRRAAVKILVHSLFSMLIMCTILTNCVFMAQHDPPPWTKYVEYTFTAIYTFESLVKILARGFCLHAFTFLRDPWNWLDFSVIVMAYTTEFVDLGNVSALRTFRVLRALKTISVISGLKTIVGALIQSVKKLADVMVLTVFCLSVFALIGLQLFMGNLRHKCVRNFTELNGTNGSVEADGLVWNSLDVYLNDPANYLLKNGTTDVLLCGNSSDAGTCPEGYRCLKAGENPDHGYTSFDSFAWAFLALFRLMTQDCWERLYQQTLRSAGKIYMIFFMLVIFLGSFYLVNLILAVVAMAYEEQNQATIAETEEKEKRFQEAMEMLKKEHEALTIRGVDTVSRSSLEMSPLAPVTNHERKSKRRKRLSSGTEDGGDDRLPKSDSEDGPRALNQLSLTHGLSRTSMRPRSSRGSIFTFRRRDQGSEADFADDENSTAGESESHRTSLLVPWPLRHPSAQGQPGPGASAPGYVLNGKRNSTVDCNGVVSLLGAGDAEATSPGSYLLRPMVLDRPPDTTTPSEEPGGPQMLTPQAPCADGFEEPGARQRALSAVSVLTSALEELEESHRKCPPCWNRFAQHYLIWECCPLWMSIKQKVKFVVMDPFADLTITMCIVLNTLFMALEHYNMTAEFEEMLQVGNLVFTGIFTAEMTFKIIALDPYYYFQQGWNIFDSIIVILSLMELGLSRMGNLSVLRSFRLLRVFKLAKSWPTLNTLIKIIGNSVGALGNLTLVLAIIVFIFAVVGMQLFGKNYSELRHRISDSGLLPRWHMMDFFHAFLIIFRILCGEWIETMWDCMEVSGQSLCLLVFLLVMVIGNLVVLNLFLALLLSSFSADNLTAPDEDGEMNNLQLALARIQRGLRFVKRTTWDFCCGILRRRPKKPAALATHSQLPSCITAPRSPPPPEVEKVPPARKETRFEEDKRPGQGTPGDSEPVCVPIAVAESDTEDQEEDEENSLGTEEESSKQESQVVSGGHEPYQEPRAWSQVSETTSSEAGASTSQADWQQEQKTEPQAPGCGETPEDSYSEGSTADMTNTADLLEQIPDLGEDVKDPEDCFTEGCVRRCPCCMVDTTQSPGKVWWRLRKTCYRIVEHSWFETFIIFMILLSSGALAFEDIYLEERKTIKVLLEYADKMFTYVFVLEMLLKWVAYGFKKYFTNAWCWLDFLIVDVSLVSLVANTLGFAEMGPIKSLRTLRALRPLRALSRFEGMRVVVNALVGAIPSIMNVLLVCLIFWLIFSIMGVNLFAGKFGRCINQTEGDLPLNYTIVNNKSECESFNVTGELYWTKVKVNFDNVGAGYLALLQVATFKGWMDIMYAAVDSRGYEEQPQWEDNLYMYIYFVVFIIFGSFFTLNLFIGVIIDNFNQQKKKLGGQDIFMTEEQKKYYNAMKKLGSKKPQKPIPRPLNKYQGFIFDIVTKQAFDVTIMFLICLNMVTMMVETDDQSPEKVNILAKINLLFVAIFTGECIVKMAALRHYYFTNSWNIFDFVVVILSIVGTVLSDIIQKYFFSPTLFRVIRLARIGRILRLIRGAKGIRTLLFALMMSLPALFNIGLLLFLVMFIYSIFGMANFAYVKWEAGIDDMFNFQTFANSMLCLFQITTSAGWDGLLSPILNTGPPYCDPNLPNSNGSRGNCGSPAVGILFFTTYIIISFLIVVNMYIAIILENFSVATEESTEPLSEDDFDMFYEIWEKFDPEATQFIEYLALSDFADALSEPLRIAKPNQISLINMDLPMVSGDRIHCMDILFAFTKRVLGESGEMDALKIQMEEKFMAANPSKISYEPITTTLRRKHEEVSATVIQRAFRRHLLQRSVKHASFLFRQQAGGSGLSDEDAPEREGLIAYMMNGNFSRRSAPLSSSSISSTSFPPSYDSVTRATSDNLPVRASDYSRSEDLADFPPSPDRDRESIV
Method: Rats weighing 200-250 gms were used in this example. Animals were anesthetized with 60 mg/kg pentobarbitone i.p. The carotid artery and jugular vein were cannulated for measurement of blood pressure and drug injection, respectively. ECG was recorded by insertion of electrodes placed along the anatomical axis of the heart. All compounds were given as bolus injections.
Various ECG parameters were measured. The most sensitive of these for measuring sodium channel blockade is RSh (J. Pharmacology Methods 27:51-58 (1992)). Table 4 describes the results of the tests as ED25 (micromoles/kg) which are the doses required to produce a 25% increase in the parameter measured (ne=not estimated). The increases in P-R interval, QRS interval and RSh indicate cardiac sodium channel blockade while the increase in Q-T interval indicates ancillary cardiac potassium channel blockade which is the property of a type 1 a antiarrhythmic.

[3] = test system: cardiac potassium channel; test: ECG parameters in anesthetized rats (QT; ancillary cardiac potassium channel blockade); type: in vivo, rat; settings: i.v. bolus, Q-T interval
Method: Various ECG parameters were measured. […] The increases in P-R interval, QRS interval and RSh indicate cardiac sodium channel blockade while the increase in Q-T interval indicates ancillary cardiac potassium channel blockade which is the property of a type 1 a antiarrhythmic.

cardiac sodium channel [4] = target: T1, cardiac sodium channel; test: Electrical stimulation of left ventricle in rats (iT, VFT; cardiac sodium channel blockade); type: in vivo; settings: infusion rate for 25% increase from control; anesthetized rats
Method: Rats were prepared according to the preceding procedure. Two silver stimulating electrodes were inserted through the chest wall and implanted in the left ventricle. Square wave stimulation was used to determine threshold current for capture, ventricular fibrillation threshold current, and effective refractory period (Howard, P. G. and Walker, M. J. A., Proc. West. Pharmacol. Soc. 33:123-127 (1990)). Table 5 contains ED25 values for these indices of cardiac sodium channel blockade, where the ED25 is the infusion rate in micromoles/kg/minute of compound required to elicit a 25% increase from control. The increases in refractoriness indicate ancillary blockade of potassium channels. The threshold current for capture is represented by "iT". The fibrillation threshold current is represented by "VFT". The effective refracting period is represented by "ERP".

potassium channels = test: Electrical stimulation of left ventricle in rats (ERP; ancillary blockade of potassium channels); type: in vivo, rat; settings: infusion rate for 25% increase from control; anesthetized rats
From the text: Two silver stimulating electrodes were inserted through the chest wall and implanted in the left ventricle. Square wave stimulation was used to determine threshold current for capture, ventricular fibrillation threshold current, and effective refractory period (Howard, P. G. and Walker, M. J. A., Proc. West. Pharmacol. Soc. 33:123-127 (1990)). […] The threshold current for capture is represented by "iT". The fibrillation threshold current is represented by "VFT". The effective refracting period is represented by "ERP".

cardiac sodium channel [5] = target: T1, cardiac sodium channel; test: Whole cell voltage clamp tests, single isolated adult rat cardiac cells; type: cell-based
Method: In order to directly measure cardiac sodium channel blockade, standard whole cell voltage clamp tests were carried out using single isolated adult rat cardiac cells. Results in the form of EC50 values, which are micromolar concentrations required to produce a 50% reduction in sodium current, are presented in Table 6.

phrenic nerve diaphragm = test: Nerve conduction blockade in vitro, phrenic nerve diaphragm; settings: Rattus norvegicus, read-out: concentration at which the twitch response from electrical stimulation is reduced to 50% of control value
Method: In order to establish the potency of the compounds to block nerve conduction, two in vitro assays were used. The first was the phrenic nerve diaphragm of the rat. […] Nerve blockade in these preparations is indicative of local anesthetic activity. Compounds were administered to the bath solution in increasing concentrations while the preparations were being stimulated with regular electrical impulses.

[6] = test system: hypogastric nerve vas deferens; test: Nerve conduction blockade in vitro, hypogastric nerve vas deferens; settings: read-out: concentration at which the twitch response from electrical stimulation is reduced to 50% of control value
Method: In order to establish the potency of the compounds to block nerve conduction, two in vitro assays were used. The first was the phrenic nerve diaphragm of the rat. The second was the hypogastric nerve vas deferens. Nerve blockade in these preparations is indicative of local anesthetic activity. Compounds were administered to the bath solution in increasing concentrations while the preparations were being stimulated with regular electrical impulses.

[7] = test system: central nervous system of the rat; test: Opioid-like effects during in vivo tests
From the text: This provides evidence that some of the compounds may have analgesic activity through activation of opioid receptors. Examination of members of this series of compounds by analgesic assays and binding studies show the presence of opioid binding and activity.

[8] = whole cell voltage clamp, isolated adult rat cardiac cells, read-out: EC50 (concentration required to produce a 50% reduction in sodium current)
[9] = phrenic nerve diaphragm, in vitro
[10] = hypogastric nerve vas deferens, in vitro

Cl.O=C(Cc1csc2ccccc12)O[C@@H]1CCCC[C@H]1N1CCOCC1 (racemic) [Compound #6, (±)-trans-[2-(4-morpholinyl)cyclohexyl]benzo[b]thiophene-3-acetate monohydrochloride]
AS (arrhythmia score) ([1]; dose 5 micromoles/kg/min infusion): 1.8
ED25 RSh (dose required to produce a 25% increase) (cardiac sodium channel [2]): 100 µmol/kg
ED25 QT (dose required to produce a 25% increase) [3]: 79 µmol/kg
ED25 VFT (fibrillation threshold current) (cardiac sodium channel [4]): 9 µmol/kg/min
ED25 iT (threshold current for capture) (cardiac sodium channel [4]): 12 µmol/kg/min
ED25 ERP (effective refractory period) (potassium channels): 7 µmol/kg/min
EC50 (cardiac sodium channel [5]; [8]): 150 µM
IC50 (phrenic nerve diaphragm; [9]): 30 µM
IC50 [6, 10]: 100 µM
opioid-like effects on the central nervous system [7]: induced opioid-like effects on the central nervous system of the rat

O=C(COc1ccc(Cl)c(Cl)c1)O[C@@H]1CCCC[C@H]1N1CCCC1 (relative stereo) [Compound #1, (±)-trans-[2-(1-pyrrolidinyl)cyclohexyl](3,4-dichlorophenoxy)acetate monohydrochloride]
ED25 PR (dose required to produce a 25% increase) (cardiac sodium channel [2]): 17 µmol/kg
ED25 RSh (dose required to produce a 25% increase) (cardiac sodium channel [2]): 10 µmol/kg
ED25 QT (dose required to produce a 25% increase) [3]: 78 µmol/kg
ED25 VFT (fibrillation threshold current) (cardiac sodium channel [4]): 3 µmol/kg/min
ED25 iT (threshold current for capture) (cardiac sodium channel [4]): 6 µmol/kg/min
ED25 ERP (effective refractory period) (potassium channels): 4 µmol/kg/min
EC50 (cardiac sodium channel [5]): 200 µM
IC50 (phrenic nerve diaphragm): 90 µM
IC50 [6]: 40 µM

O=C(COc1cccc2ccccc12)O[C@@H]1CCCC[C@H]1N1CCCC1 (relative stereo) [Compound #2, (±)-trans-[2-(1-pyrrolidinyl)cyclohexyl](1-naphthoxy)acetate monohydrochloride]
AS (arrhythmia score) ([1]; dose 20 micromoles/kg/min infusion): 4
ED25 PR (dose required to produce a 25% increase) (cardiac sodium channel [2]): 23 µmol/kg
ED25 RSh (dose required to produce a 25% increase) (cardiac sodium channel [2]): 11 µmol/kg
ED25 QT (dose required to produce a 25% increase) [3]: 53 µmol/kg
ED25 VFT (fibrillation threshold current) (cardiac sodium channel [4]): 2 µmol/kg/min
ED25 iT (threshold current for capture) (cardiac sodium channel [4]): 5 µmol/kg/min
ED25 ERP (effective refractory period) (potassium channels): 3 µmol/kg/min
EC50 (cardiac sodium channel [5]; [8]): 50 µM
IC50 (phrenic nerve diaphragm; [9]): 120 µM
IC50 [6, 10]: 25 µM

O=C(COc1ccc(Cl)c(Cl)c1)O[C@@H]1CCCC[C@H]1N1CC2CCC(CC2)C1 (relative stereo) [Compound #3, (±)-trans-{2-[N-(3-azabicyclo[3.2.2]nonyl)]cyclohexyl}(3,4-dichlorophenoxy)acetate monohydrochloride]
ED25 PR (dose required to produce a 25% increase) (cardiac sodium channel [2]): 140 µmol/kg
ED25 QRS (dose required to produce a 25% increase) (cardiac sodium channel [2]): 130 µmol/kg
ED25 RSh (dose required to produce a 25% increase) (cardiac sodium channel [2]): 140 µmol/kg
ED25 QT (dose required to produce a 25% increase) [3]: 160 µmol/kg
EC50 (cardiac sodium channel [5]): > 150 µM
IC50 (phrenic nerve diaphragm): 200 µM
IC50 [6]: 300 µM

O=C(COc1ccc(Cl)c(Cl)c1)O[C@@H]1CCCC[C@H]1N1CCCCCC1 (relative stereo) [Compound #5, (±)-trans-[2-(1-hexahydroazepinyl)cyclohexyl](3,4-dichlorophenoxy)acetate monohydrochloride]
AS (arrhythmia score) ([1]; dose 4 micromoles/kg/min infusion): 3
ED25 PR (dose required to produce a 25% increase) (cardiac sodium channel [2]): 43 µmol/kg
ED25 QRS (dose required to produce a 25% increase) (cardiac sodium channel [2]): 66 µmol/kg
ED25 RSh (dose required to produce a 25% increase) (cardiac sodium channel [2]): 36 µmol/kg
ED25 QT (dose required to produce a 25% increase) [3]: 45 µmol/kg
ED25 VFT (fibrillation threshold current) (cardiac sodium channel [4]): 4 µmol/kg/min
ED25 iT (threshold current for capture) (cardiac sodium channel [4]): 5 µmol/kg/min
ED25 ERP (effective refractory period) (potassium channels): 4 µmol/kg/min
IC50 (phrenic nerve diaphragm): 180 µM
IC50 [6]: 100 µM

O=C(Cc1ccc([N+](=O)[O-])cc1)O[C@@H]1CCCC[C@H]1N1CCOCC1 (relative stereo) [Compound #12, (+5-trans-[2-(4-morpholinyl)cyclohexyl](4-nitrophenyl)acetatemonohydrochloride]
AS (arrhythmia score) ([1]; dose 8 micromoles/kg/min infusion): 3
ED25 PR (dose required to produce a 25% increase) (cardiac sodium channel [2]): 64 µmol/kg
ED25 QRS (dose required to produce a 25% increase) (cardiac sodium channel [2]): 82 µmol/kg
ED25 RSh (dose required to produce a 25% increase) (cardiac sodium channel [2]): 17 µmol/kg
ED25 QT (dose required to produce a 25% increase) [3]: 44 µmol/kg
ED25 VFT (fibrillation threshold current) (cardiac sodium channel [4]): 5 µmol/kg/min
ED25 iT (threshold current for capture) (cardiac sodium channel [4]): 4 µmol/kg/min
ED25 ERP (effective refractory period) (potassium channels): 6 µmol/kg/min
EC50 (cardiac sodium channel [5]; [8]): > 300 µM
